Laboratory results reported in paper PMC3602279 (Bioorganic & medicinal chemistry letters, 2013).
“Also recorded” adds a separate entry of the source.

Legend:
[1] = molecular target: human μ opioid receptor (Homo sapiens, UniProt P35372); test: [35S]GTPγS binding, stimulation and inhibition of agonist-stimulated binding; format: biochemical; conditions: for Functional description / Imax (% maximal inhibition): Mu Opioid Receptor; for Imax (% maximal inhibition): inhibition of binding stimulated by 200 nM DAMGO; for Emax: read-out: Emax (% maximal stimulation)
[2] = molecular target: human κ opioid receptor (Homo sapiens, UniProt P41145); test: as above; format: biochemical; conditions: for Functional description: Kappa Opioid Receptor; for Emax: read-out: Emax (% maximal stimulation)
Sequence of human κ opioid receptor (P41145 whole entry): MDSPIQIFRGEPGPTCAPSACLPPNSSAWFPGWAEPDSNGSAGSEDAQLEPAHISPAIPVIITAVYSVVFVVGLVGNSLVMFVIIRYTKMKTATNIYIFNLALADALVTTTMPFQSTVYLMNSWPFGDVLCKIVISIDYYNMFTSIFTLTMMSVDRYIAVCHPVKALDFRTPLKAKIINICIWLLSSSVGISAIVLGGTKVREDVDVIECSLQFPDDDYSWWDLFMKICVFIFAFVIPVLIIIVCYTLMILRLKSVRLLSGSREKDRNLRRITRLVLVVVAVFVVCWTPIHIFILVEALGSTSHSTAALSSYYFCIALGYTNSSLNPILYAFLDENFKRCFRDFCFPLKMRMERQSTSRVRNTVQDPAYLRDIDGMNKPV

Sequence of human μ opioid receptor (P35372 whole entry): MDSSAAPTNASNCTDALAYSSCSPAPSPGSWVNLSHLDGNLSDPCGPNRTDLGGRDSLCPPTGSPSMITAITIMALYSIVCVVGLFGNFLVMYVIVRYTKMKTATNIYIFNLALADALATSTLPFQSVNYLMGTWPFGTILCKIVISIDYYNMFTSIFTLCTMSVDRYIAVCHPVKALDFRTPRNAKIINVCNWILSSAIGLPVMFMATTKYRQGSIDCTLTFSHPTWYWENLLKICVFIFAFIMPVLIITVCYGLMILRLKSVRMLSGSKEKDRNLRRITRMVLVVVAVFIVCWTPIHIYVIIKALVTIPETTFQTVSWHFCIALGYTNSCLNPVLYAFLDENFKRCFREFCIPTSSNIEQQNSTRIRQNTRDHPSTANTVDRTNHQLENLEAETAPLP

| SMILES | Functional description [1] | Imax (% maximal inhibition) [1] [% maximal inhibition] | Emax [1] [%] | Functional description [2] | Emax [2] [%] |
| --- | --- | --- | --- | --- | --- |
| C[C@H]1C2Cc3ccc(C(=O)NCCc4ccc(-c5ccccn5)cc4)cc3[C@@]1(C)CCN2CC1CC1 [Compound 6] | partial agonist | 87 ± 3.1 | 31 ± 1.8 | agonist | 50 ± 2.6 |
| C[C@H]1C2Cc3ccc(C(=O)NCCc4ccc(-c5ccncc5)cc4)cc3[C@@]1(C)CCN2CC1CC1 [Compound 4] | partial agonist | 79 ± 3.3 | 33 ± 0.68 | agonist | 64 ± 5.1 |
| C[C@H]1C2Cc3ccc(C(=O)NCCc4ccc(-c5ccccc5)cn4)cc3[C@@]1(C)CCN2CC1CC1 [Compound 8] | partial agonist | 53 ± 5.4 | 25 ± 1.1 | agonist | 64 ± 2.4 |
| C[C@H]1C2Cc3ccc(C(=O)NCCc4ccc(-c5cccnc5)cc4)cc3[C@@]1(C)CCN2CC1CC1 [Compound 5] | partial agonist | 83 ± 2.9 | 28 ± 2.2 | agonist | 52 ± 0.55 |
| C[C@H]1C2Cc3ccc(C(=O)NCCc4ccc(-c5ccccc5)nc4)cc3[C@@]1(C)CCN2CC1CC1 [Compound 7] | partial agonist | 87 ± 1.2 | 30 ± 2.3 | agonist | 52 ± 4.8 |
| CC1C2Cc3ccc(C(=O)NCCc4ccc(-c5ccccc5)cc4)cc3C1(C)CCN2CC1CC1 (racemic) [Compound 1, N-(2-[1,1′-biphenyl]-4-ylethyl)-3-(cyclopropylmethyl)-1,2,3,4,5,6-hexahydro-6,11-dimethyl-2,6-methano-3-benzazocine-8-carboxamide, reference compound] |  |  |  | agonist | 76 ± 6.7 |
| C[C@H]1C2Cc3ccc(C(N)=O)cc3[C@@]1(C)CCN2CC1CC1 [Compound 2, 8-carboxamidocyclazocine, reference compound] | functional partial agonists; also recorded: partial agonist | 76 ± 1.1 | 24 ± 1.9 | agonist | 87 ± 6.5 |
